Data from patent publication US20190160089A1, “COMBINATION TREATMENT WITH ANTIBODY-DRUG CONJUGATES AND CYTARABINE” (IMMUNOGEN, INC., priority 2017, published 2019).

Key:
[1] = tested on: Molm-13 cells, a human AML cell line; assay: In vivo efficacy in Molm-13 disseminated xenograft model; set-up: species or system mice; settings: cytarabine alone 75 mg/kg QD×5 days 7-11
Experimental: (§1) The measured end-point was survival. […] Spontaneous deaths were recorded when they were discovered. For disseminated models, Tumor Growth Delay is calculated as T−C, where T is the median survival time (in days) of a treated group and C is the median survival time (in days) of the vehicle control group. The Percent Increased Life Span (% ILS) for disseminated models is calculated using the following formula: % ILS=(T−C)/C×100%.
The cyclophosphamide (Sigma, C0768, Lot # MKBX1822V) was dissolved in 0.9% NaCl and was administered intraperitoneally to the mice on day −2 prior to Molm-13 cell inoculation on day 0.
Following cyclophosphamide treatment as described above, the mice were each injected intravenously in the lateral tail vein with 2×10^5 Molm-13 cells, a human AML cell line, in 100 μl of serum-free medium on day 0 in the study.
Cytarabine, in contrast, was given once a day (QD) at a dose of 75 mg/kg for five consecutive days (×5) and always on a fixed set of days in the study time line: Days 7, 8, 9, 10 and 11.
The results are represented in Table 5 (below) and in FIG. 3.

[2] = tested on: MV4-11 cells, a human AML cell line; assay: In vivo efficacy in MV4-11 disseminated xenograft model; set-up: species or system mice; settings: cytarabine alone 75 mg/kg QD×5 days 24-28
Experimental: as §1
The cyclophosphamide (Sigma, C0768, Lot # MKBX1822V) was dissolved in 0.9% NaCl and was administered intraperitoneally to the mice on day −3 and day −2 prior to MV4-11 cell inoculation.
Following cyclophosphamide treatment as described above, the mice were each injected intravenously in the lateral tail vein with 3×10^6 MV4-11 cells, a human AML cell line, in 100 μl of serum-free medium on day 0 in the study.
Cytarabine was given once a day (QD) at a dose of 75 mg/kg for five consecutive days (×5) and always administered on the same fixed set of days in the study time line: days 24, 25, 26, 27 and 28.
Lastly, Group K received QW×3 dosing of 1 μg/kg by DGN462 (0.0556 mg/kg by antibody) of a non-targeted control conjugate, Ab-DGN462, on a day 21, 28 and 35 dosing schedule (“Day 21”, with FcR blocking).

[3] = tested on: EOL-1 cells, a human AML cell line; assay: In vivo efficacy in EOL-1 subcutaneous xenograft model; settings: EOL-1 sc xenograft; IMGN779 5 μg/kg day 10; cytarabine 75 mg/kg days 10-14; text: long-term CRs on day 90
Experimental: The mice were weighed twice a week and were monitored for clinical signs throughout the duration of the study. Animals were euthanized when hind leg paralysis was present, body weight decreased by >20% of pre-treatment weight, tumor ulceration occurred, or when any signs of distress were visible. Tumor volumes were measured one to two times weekly in three dimensions using a caliper. […] Tumor Growth Inhibition (T/C Value) was also assessed using the following formula: T/C (%)=(Median tumor volume of the treated/Median tumor volume of the control)×100%. Tumor volume was determined simultaneously for the treated (T) and the vehicle control (C) groups when tumor volume of the vehicle control reached a predetermined size (Bissery et al., Cancer Res. 51: 4845-52 (1991). The daily median tumor volume of each treated group was determined, including tumor-free mice (0 mm^3). According to NCI standards, a T/C≤42% is the minimum level of anti-tumor activity. A T/C<10% is considered a high anti-tumor activity level.
Female athymic nude mice were each inoculated with 1×10^7 EOL-1 cells, a human AML cell line, in 100 μl serum free medium subcutaneously in the right flank. […]

[4] = tested on: MV4-11; assay: In vitro CD33 expression post-treatment with cytarabine (flow cytometry, PE anti-CD33); format: cell-based, human; settings: cytarabine 2,500 nM, 15, 24, 39, 48 hours post-treatment
Experimental: (§2) CD33 expression was assessed post-treatment with cytarabine. In these experiments, two AML cell lines with cell surface display of CD33 and cytarabine sensitivity were used: MV4-11 and MOLM-13. The potency-relative doses were chosen for each treatment, relative to IC50s generated from 96-hour cytotoxicity assays. […] Time points at 15 hours, 24 hours, 39 hours, and 48 hours post-treatment with cytarabine were chosen for cell surface CD33 assessment. Cells were stained with, then washed of excess, PE-conjugated anti-CD33 mAb. Flow cytometric analyses of PE MFI were run on a FACSCanto II flow cytometer. PE-MFIs at each timepoint were normalized to PE-MFIs of untreated control samples and normalized PE-MFIs were considered to represent relative fold-changes in surface CD33 binding sites.

[5] = tested on: MOLM-13; assay: as above; format: cell-based, human; settings: cytarabine 400 nM, 15, 24, 39, 48 hours post-treatment
Experimental: as §2

[6] = biological target: CD33 (Homo sapiens, UniProt P20138); settings: CD33 on the surface of CD33-positive cells; cited from earlier work
Chain of CD33 (P20138 18-364): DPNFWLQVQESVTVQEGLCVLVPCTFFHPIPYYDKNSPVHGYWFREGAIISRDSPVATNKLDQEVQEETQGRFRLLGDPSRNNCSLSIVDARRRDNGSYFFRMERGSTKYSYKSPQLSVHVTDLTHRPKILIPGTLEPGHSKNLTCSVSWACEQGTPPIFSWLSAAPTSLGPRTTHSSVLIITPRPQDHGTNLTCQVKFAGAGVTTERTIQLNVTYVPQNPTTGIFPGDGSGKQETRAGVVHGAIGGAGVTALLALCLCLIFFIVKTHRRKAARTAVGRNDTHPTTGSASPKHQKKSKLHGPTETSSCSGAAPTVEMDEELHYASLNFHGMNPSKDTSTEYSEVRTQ

| Compound | Median Survival Time ([1]; NOD SCID mice) | % Increased Life Span (ILS) [1] | Result [1] | Tumor Growth Delay (T-C, Days) [1] | Median Survival Time ([2]; NOD SCID mice) | % Increased Life Span (ILS) [2] | Result [2] | Tumor Growth Delay (T-C, Days) [2] | Tumor Free Survivors (Day 90) [3] | CD33 transcription and cell surface expression [4] | CD33 transcription and cell surface expression [5] | binding affinity to CD33 [6] |
| --- | --- | --- | --- | --- | --- | --- | --- | --- | --- | --- | --- | --- |
| Nc1ccn([C@@H]2O[C@H](CO)[C@@H](O)[C@@H]2O)c(=O)n1 [Cytarabine, cytosine arabinoside] | 20 days | 0% | Inactive | 0 days | 46 days | 0% | Inactive | 0 days | 0/6 | dose- and time-dependent increase | dose- and time-dependent increase | – |
| My9-6: murine anti-CD33 antibody from which huMy9-6 is derived | – | – | – | – | – | – | – | – | – | – | – | high affinity |
